For the experiment, the target named is T1, human IDO1 (Homo sapiens, UniProt P14902).
T1 construct: expressed in transfected cells
The experiment is described as follows: HEK293 cells stably expressing human IDO1, IDO inhibition assay (kynurenine, Ehrlich reagent). The following applies: 20 hours incubation, absorbance at 490 nm, read-out: HEK Human IDO-1 Bio Activity (IDO IC50). Type of experiment: cell-based. On the procedure: HEK293 cells were transfected with a pCDNA-based mammalian expression vector harboring human IDO1 cDNA (NM 002164.2) by electroporation. They were cultured in medium (DMEM with 10% FBS) containing 1 mg/ml G418 for two weeks. Clones of HEK293 cells that stably expressed human IDO1 protein were selected and expanded for IDO inhibition assay. The human IDO1/HEK293 cells were seeded at 10,000 cells per 50 μL per well with RPMI/phenol red free media contains 10% FBS in a 384-well black wall clear bottom tissue culture plate (Matrix Technologies LLC) 100 nL of certain concentration of compound was then added to each well using ECHO liquid handling systems. The cells were incubated for 20 hours in 37° C. incubator with 5% CO2. The compound treatments were stopped by adding trichloroacetic acid (Sigma-Aldrich) to a final concentration at 0.2%. The cell plate was further incubated at 50° C. for 30 minute. The equal volume supernatant (20 μL) and 0.2% (w/v) Ehrlich reagent (4-dimethylaminobenzaldehyde, Sigma-Aldrich) in glacial acetic acid were mixed in a new clear bottom 384-well plate. This plate was then incubated at room temperature for 30 minute. The absorbance at 490 nm was measured on Envision plate reader. Compound IC50 values were calculated using the counts of 500 nM of a reference standard treatment as one hundred percent inhibition, and counts of no compound but DMSO treatment as zero percent inhibition.

T1 sequence (P14902 whole entry): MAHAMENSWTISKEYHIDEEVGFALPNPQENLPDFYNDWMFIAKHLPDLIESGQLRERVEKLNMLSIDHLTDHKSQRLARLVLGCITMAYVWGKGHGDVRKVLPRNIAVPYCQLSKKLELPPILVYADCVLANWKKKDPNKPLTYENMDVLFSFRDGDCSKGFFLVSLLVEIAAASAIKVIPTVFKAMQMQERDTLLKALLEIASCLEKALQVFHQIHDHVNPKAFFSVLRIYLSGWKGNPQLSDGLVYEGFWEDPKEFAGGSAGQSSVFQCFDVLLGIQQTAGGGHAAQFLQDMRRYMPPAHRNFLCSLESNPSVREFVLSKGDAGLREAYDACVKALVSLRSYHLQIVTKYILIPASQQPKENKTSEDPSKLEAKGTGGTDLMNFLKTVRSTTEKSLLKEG

Turning to `COc1ccc(CN(C(=O)Nc2ccc(F)c(F)c2)[C@H]2CC[C@H](c3ccccc3)CC2)cc1` [Example 8, 3-(3,4-difluorophenyl)-1-(4-methoxybenzyl)-1-(trans-4-phenylcyclohexyl)urea], the IC50 was less than 1000 nM.
`C[C@@H](NC(=O)N(Cc1ccccc1)[C@H]1CC[C@H](c2ccnc3ccc(F)cc32)CC1)c1ccc(F)cc1` [Example 40, 1-benzyl-3-((R)-1-(4-fluorophenyl)ethyl)-1-((1r,4R)-4-(6-fluoroquinolin-4-yl)cyclohexyl)urea]: the IC50 is less than 1000 nM.
As for `COc1ccc(CN(C(=O)N[C@@H](C)c2ccc(Cl)cc2)[C@H]2CC[C@H](c3ccccc3)CC2)cc1` [Example 31, 3-((S)-1-(4-chlorophenyl)ethyl)-1-(4-methoxybenzyl)-1-((1r,4S)-4-phenylcyclohexyl)urea], the IC50 was less than 1000 nM.
With `O=C(O)Cc1ccc(CN(C(=O)Nc2ccc(Cl)cc2)[C@H]2CC[C@H](c3ccnc4ccc(F)cc43)CC2)cc1` [Example 25, 2-(4-((3-(4-chlorophenyl)-1-(trans-4-(6-fluoroquinolin-4-yl)cyclohexyl)ureido)methyl)phenyl)acetic Acid], the half-inhibitory concentration (IC50) was less than 1000 nM.
On to `CCOc1ccc(NC(=O)N(Cc2ccc(OC)cc2)[C@H]2CC[C@H](c3ccccc3)CC2)cc1` [Example 13, 3-(4-ethoxyphenyl)-1-(4-methoxybenzyl)-1-(trans-4-phenylcyclohexyl)urea], for which the IC50 was less than 1000 nM.
